Results as given in paper PMC3701070 (PLoS ONE, 2013).
Read-outs that look alike come from different tables or passages of the source.

Tests used:
[1] = tested on: Colo 205 tumor xenografts (BRAF^V600E); experiment: Colo 205 tumor xenograft growth; assay type: in vivo, mice
Text: The 14-day period of dosing is indicated by the shaded gray bar.

[2] = tested on: pERK in A375P (BRAF^V600E) cells; experiment: Western blot, pERK in A375P cells; assay type: cell-based; details: Homo sapiens, 8 nM, 1 h
Protocol: (§1) Cells were lysed in 25 mM Tris-HCl pH 7.5, 2 mM EDTA, 2 mM EGTA, 1% Triton X-100, 0.1% SDS, 50 mM sodium-β-glycerophosphate, 2 mM Na3VO4, 12.5 mM sodium pyrophosphate, 2× Complete EDTA-free mini protease inhibitor tablets (Roche), 2× phosphatase inhibitor cocktails I and II (Sigma-Aldrich). Protein concentrations were determined by Bio-Rad DC™ or dye-based protein assays and lysates were resolved by SDS-PAGE (Invitrogen NuPAGE®) and transferred to PVDF membranes. Membranes were blocked with Odyssey® (LI-COR Biosciences) blocking buffer and incubated with primary antibodies overnight at 4°C. Blots were washed with PBS containing 0.1% Tween-20, incubated with secondary antibodies, and washed again prior to signal detection on a LI-COR Odyssey® reader.
siRNA complexes were prepared per the manufacturer's instructions using Dharmacon RNAi duplex (Thermo Fisher Scientific), Lipofectamine™ RNAiMAX™ (Invitrogen), and Opti-MEM® (Gibco) and allowed to form at room temperature for at least 40 min. Volumes of 1 mL of RNAi complex were added to each well of a plate with 150 000 cells in complete medium (no antibiotic) and incubated at 37°C, 5% CO2 for the indicated times.
Lysates were immunoblotted for the proteins indicated.

LIMK1 (h) = molecular target: T1, LIMK1 (h) (Homo sapiens, UniProt P53667); experiment: Kinase panel (Millipore) enzyme activity; assay type: biochemical
T1 construct: purchased Millipore
Text: (§2) (PDF) Click here for additional data file.

NEK11 (h) = molecular target: T2, NEK11 (h) (Homo sapiens, UniProt Q8NG66); experiment: Kinase panel (Millipore) enzyme activity; assay type: biochemical
T2 construct: purchased Millipore

A375P tumor xenograft = details: groups of 8 mice, cited from earlier work
ALK5 (h) = ALK5 (h) (Homo sapiens, UniProt P36897); experiment: ALK5 binding assay
[3] = tested on: phospho-MEK1/2 (pMEK) in ES-2 ovarian carcinoma (BRAF^V600E) cells; experiment: Western blot, pMEK in ES-2 cells; assay type: cell-based; details: Homo sapiens; ES-2 cells (BRAF^V600E), 1 h, immunoblot; read-out: IC50 for pMEK inhibition
Protocol: as §1
Signals were quantified and used to determine IC50 values. (PPTX) Click here for additional data file.

SIK (h) = molecular target: T3, SIK (h) (Homo sapiens, UniProt P57059); experiment: Kinase panel (Millipore) enzyme activity; assay type: biochemical
T3 construct: purchased Millipore

BRK (h) = molecular target: T4, BRK (h) (Homo sapiens, UniProt Q13882); experiment: Kinase panel (Millipore) enzyme activity; assay type: biochemical
T4 construct: purchased Millipore

HCT-116 = experiment: Cell growth assay; assay type: cell-based, human; details: HCT-116, RAF WT, KRAS(G13D), 3-day
Protocol: (§3) Growth was measured with CellTiter-Glo® (Promega) reagent per the manufacturer’s protocol, using a PerkinElmer EnVision™ reader at t = 0 and 72 h. IC50 values for cell growth inhibition (gIC50) were determined.
as §2

ALK5 = ALK5 (Homo sapiens, UniProt P36897); experiment: ALK5 cell-based assay
A375 = experiment: Cell growth assay; assay type: cell-based; details: Homo sapiens, A-375, 72 h; A375, BRAF(V600E), RAS WT, 3-day; read-out: gIC50
Protocol: as §3, §2
Supplementary file pone.0067583.s006.pdf: Table S3 Enzymatic and cellular activity of tool inhibitors used in the rat skin lesion formation study. Activity of GSK2366297A (BRAF tool inhibitor) and GSK2091975 (MEK tool inhibitor, active form of prodrug GSK2091976) were measured against their respective enzyme targets as described in the Materials and Methods section. Cellular activity was determined for each by inhibition of ERK phosphorylation in SK-MEL-28 cells and growth of A375 cells, both of which express BRAF^V600E. (PDF) Click here for additional data file.

[4] = tested on: pMEK and pERK in HCT-116 (wild-type BRAF, mutant KRAS) cells; experiment: Western blot, paradoxical MAPK activation in HCT-116 cells; assay type: cell-based, human; details: 100 nM or 300 nM, 1 h
Protocol: as §1
Lysates were immunoblotted for total ERK (tERK) and dual-phosphorylated ERK (ppERK) (B).

[5] = tested on: A375P tumors (BRAF^V600E)
Text: Cells were implanted subcutaneously in female CD1 nu/nu mice and grown to form tumors. […] Tumor volumes were estimated twice weekly from two-dimensional caliper measurements using the prolate ellipsoid equation [drawing 1] , where v = volume (mm^3), l = length (mm), and w = width (mm), and reported as means for n of 7 or 8 mice per group. Tumor growth inhibition represents the percentage volume differential between treated and control tumors at the time when vehicle-treated tumors exceeded a volume of 1 000 mm^3. Partial regression is defined as a 50% decrease from an individual tumor's starting volume for at least 1 week (three consecutive measurements). […] All efforts were made to minimize suffering and mice were euthanized by carbon dioxide asphyxiation if at least one death occurred per treatment group, if an animal appeared moribund or in distress, or if the tumor became ulcerated.
Treatment continued until the mean tumor volume of each group reached 1 200 mm^3 or one death occurred. Mean tumor volumes are plotted with their standard error mean and complete (CR) or partial (PR) regressions are indicated for each group of n = 8 mice after 14 days of treatment.

SK-MEL-28 cells [6] = experiment: Cell cycle analysis; assay type: cell-based, human; details: SK-MEL-28 (BRAF^V600E), 72-hour exposure
Protocol: (§4) Cells were permeabilized, DNA was stained with propidium iodide, and samples were read on a BD LSRII flow cytometer. Data were analyzed using the cell cycle platform of FlowJo v6.1.1 software.
(§5) Cell cycle phases are shown in stacked format as a percentage of the total population. […] (PPTX) Click here for additional data file.

A375P cells [7] = experiment: Cell cycle analysis; assay type: cell-based, human; details: A375P (BRAF^V600E), 72-hour exposure
Protocol: as §4, §5

SK-MEL-28 cells [8] = experiment: Caspase-3/7 activation; assay type: cell-based, human; details: SK-MEL-28 (BRAF^V600E)
Protocol: (§6) At selected times, caspase-3/7 activity and cell density were determined using Caspase-Glo® (Promega) and CellTiter-Glo® reagents, respectively, using a PerkinElmer EnVision™ reader. Caspase activity was normalized to cell density and percent induction over the DMSO control was determined.
as §5

A375P cells [9] = experiment: Caspase-3/7 activation; assay type: cell-based, human; details: A375P (BRAF^V600E)
Protocol: as §6, §5

T2 sequence (Q8NG66 whole entry): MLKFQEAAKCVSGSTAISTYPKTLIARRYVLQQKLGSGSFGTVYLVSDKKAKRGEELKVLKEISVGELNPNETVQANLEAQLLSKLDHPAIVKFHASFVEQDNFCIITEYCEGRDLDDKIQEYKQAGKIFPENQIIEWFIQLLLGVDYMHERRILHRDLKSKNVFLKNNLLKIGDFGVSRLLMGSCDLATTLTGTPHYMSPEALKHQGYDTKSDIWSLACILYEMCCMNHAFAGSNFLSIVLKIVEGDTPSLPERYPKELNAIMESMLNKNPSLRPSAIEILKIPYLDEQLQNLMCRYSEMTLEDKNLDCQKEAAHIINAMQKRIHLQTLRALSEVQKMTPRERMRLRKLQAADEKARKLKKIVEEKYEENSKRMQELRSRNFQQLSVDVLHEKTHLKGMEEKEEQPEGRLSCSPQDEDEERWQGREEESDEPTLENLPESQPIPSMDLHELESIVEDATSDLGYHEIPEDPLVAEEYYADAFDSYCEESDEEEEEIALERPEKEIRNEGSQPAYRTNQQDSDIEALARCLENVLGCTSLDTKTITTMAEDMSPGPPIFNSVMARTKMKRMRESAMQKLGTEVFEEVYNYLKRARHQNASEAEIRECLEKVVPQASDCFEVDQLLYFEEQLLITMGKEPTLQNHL
Chain of ALK5 (P36897 34-503, species assumed): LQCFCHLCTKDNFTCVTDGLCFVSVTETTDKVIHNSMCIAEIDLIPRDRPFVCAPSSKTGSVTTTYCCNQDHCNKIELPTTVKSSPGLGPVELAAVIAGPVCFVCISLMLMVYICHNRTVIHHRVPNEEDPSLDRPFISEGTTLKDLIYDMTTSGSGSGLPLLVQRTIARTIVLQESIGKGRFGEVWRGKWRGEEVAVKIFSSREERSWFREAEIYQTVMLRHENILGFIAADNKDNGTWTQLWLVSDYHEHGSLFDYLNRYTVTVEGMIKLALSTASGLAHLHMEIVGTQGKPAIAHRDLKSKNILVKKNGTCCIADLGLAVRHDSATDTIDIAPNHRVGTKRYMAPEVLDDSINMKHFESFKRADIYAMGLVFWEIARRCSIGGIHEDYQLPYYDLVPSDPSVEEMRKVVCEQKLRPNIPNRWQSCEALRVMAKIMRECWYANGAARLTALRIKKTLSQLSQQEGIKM
Chain of ALK5 (h) (P36897 34-503): as the sequence (P36897 34-503, species assumed) above
T3 sequence (P57059 whole entry): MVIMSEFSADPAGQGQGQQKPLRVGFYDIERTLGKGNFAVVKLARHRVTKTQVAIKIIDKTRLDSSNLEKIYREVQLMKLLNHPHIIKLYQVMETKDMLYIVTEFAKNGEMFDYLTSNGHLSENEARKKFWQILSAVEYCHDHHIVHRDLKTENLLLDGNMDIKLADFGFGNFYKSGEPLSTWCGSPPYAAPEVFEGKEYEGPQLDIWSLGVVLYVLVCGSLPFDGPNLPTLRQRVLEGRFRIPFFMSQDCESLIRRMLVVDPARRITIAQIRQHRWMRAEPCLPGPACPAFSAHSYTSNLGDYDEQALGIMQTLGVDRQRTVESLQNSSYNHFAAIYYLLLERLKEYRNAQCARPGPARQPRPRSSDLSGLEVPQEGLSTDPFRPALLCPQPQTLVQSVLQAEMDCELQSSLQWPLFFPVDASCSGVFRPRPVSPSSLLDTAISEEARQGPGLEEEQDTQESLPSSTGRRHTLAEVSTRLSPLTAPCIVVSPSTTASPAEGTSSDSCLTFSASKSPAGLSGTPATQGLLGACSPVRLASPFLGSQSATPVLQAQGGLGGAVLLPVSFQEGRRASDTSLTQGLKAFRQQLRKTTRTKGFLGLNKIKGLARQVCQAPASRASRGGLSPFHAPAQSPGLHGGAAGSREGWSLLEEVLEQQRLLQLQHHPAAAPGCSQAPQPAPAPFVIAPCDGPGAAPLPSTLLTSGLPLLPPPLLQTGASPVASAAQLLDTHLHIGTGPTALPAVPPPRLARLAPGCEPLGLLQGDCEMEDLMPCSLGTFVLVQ
T4 sequence (Q13882 whole entry): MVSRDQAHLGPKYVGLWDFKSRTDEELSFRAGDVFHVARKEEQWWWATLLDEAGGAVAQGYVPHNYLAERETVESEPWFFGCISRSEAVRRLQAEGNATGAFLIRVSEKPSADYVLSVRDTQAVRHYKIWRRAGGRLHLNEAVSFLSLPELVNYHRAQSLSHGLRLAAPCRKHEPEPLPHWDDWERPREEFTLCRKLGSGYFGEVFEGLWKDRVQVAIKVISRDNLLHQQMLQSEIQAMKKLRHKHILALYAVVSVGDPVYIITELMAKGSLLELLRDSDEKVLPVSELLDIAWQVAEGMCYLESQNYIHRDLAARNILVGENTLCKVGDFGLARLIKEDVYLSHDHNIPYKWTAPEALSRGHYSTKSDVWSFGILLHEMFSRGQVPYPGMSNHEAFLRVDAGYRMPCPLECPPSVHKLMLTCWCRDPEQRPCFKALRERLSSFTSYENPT
T1 sequence (P53667 whole entry): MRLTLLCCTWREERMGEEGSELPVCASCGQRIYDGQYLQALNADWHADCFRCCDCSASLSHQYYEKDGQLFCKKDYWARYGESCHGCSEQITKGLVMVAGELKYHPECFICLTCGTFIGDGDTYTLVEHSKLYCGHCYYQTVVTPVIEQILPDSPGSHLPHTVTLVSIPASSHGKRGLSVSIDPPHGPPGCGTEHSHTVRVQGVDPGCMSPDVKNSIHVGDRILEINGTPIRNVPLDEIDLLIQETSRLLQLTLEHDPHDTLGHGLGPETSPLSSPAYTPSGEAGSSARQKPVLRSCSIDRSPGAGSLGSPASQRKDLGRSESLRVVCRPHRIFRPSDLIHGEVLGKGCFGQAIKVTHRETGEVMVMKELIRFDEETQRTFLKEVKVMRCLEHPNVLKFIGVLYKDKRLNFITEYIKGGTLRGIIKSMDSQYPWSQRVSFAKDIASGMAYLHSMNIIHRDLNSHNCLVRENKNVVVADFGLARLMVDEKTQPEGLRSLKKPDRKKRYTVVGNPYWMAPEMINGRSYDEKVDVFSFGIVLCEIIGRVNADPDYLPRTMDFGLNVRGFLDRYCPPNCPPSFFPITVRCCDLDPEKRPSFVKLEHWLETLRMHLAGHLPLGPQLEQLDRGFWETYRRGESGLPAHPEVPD

CC(C)(C)c1nc(-c2cccc(NS(=O)(=O)c3c(F)cccc3F)c2F)c(-c2ccnc(N)n2)s1 [dabrafenib]
partial regressions ([1]; Colo 205 xenograft, 100 mg/kg oral q.d. x 14): 4 of 8 mice
inhibition of tumor growth ([1]; Colo 205 xenograft, 3, 10, 30 and 100 mg/kg oral q.d. x 14): dose-dependent inhibition of tumor growth
inhibition at 0.008 µM [2]: > 90%
IC50 (LIMK1 (h)): 15 nM
IC50 (NEK11 (h)): 20 nM
complete regressions (A375P tumor xenograft; 10 mg/kg): 1
partial regressions (A375P tumor xenograft; 10 mg/kg): 2
complete regressions (A375P tumor xenograft; 100 mg/kg): 4
partial regressions (A375P tumor xenograft; 100 mg/kg): 2
IC50 (ALK5 (h)): 11 nM
IC50 [3]: 6 nM
IC50 (SIK (h)): 27 nM
IC50 (BRK (h)): 79 nM
gIC50 (HCT-116): insensitive
IC50 (HCT-116; Homo sapiens, 72 h, read-out: gIC50): > 10000 nM
ALK5 inhibition in cell-based assay (ALK5): absence of ALK5 inhibition
IC50 (A375): 4 nM
pMEK and pERK compared with DMSO control [4]: increased pMEK and pERK
period for which tumor growth inhibition was observed ([5]; 30 mg/kg for 33 days): 14 days
period for which tumor growth inhibition was observed ([5]; 300 mg/kg for 43 days): 20 days
effect on cell cycle (SK-MEL-28 cells [6]): arrested the BRAF^V600E cells at the G1 (2n DNA) phase of the cell cycle
effect on cell cycle (A375P cells [7]): arrested the BRAF^V600E cells at the G1 (2n DNA) phase of the cell cycle
caspase-3/7 activation and apoptosis (SK-MEL-28 cells [8]): induced caspase-3/7 activation and apoptosis
caspase-3/7 activation and apoptosis (A375P cells [9]): induced caspase-3/7 activation and apoptosis
